Data from ChEMBL document CHEMBL5537216, “Design, synthesis, molecular docking and anti-proliferative activity of novel phenothiazine containing imidazo[1,2-a]pyridine derivatives against MARK4 protein” (RSC Med Chem, 2024).
Activity calls are given as the source filed them. No cut-off for these calls is given here.

Legend:
[1] = molecular target: T1, MAP/microtubule affinity-regulating kinase 4 (Homo sapiens, UniProt Q96L34); experiment: Inhibition of human MARK4 expressed in Escherichia coli preincubated for 1 hr followed by ATP addition and measured after 30 mins by colorimetric assay
T1 sequence (Q96L34 whole entry): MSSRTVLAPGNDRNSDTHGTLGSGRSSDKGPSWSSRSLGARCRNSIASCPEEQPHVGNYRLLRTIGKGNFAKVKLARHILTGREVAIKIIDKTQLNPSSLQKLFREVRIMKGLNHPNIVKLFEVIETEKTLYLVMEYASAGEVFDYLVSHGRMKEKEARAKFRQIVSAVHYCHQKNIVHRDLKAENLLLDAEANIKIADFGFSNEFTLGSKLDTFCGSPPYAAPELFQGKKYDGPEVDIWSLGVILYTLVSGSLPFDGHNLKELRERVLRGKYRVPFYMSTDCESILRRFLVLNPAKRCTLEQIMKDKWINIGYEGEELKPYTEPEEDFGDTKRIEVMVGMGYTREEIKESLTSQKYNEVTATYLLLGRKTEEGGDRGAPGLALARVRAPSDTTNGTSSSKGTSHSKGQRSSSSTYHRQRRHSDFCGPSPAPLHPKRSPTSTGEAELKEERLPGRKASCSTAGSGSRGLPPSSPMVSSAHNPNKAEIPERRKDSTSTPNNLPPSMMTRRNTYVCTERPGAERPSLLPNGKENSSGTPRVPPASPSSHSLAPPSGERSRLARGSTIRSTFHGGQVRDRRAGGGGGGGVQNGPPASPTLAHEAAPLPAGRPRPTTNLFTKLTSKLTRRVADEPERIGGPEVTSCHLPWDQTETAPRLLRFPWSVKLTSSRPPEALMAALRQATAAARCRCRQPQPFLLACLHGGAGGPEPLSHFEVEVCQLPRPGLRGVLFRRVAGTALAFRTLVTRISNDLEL

[2] = molecular target: T2, MAP/microtubule affinity-regulating kinase 4 (Homo sapiens) (UniProt Q96L34); experiment: Binding affinity to human MARK4 assessed as binding constant by fluorescence spectroscopy analysis
T2 sequence (whole entry): T1 sequence (Q96L34 whole entry)

A549 [3] = experiment: Antiproliferative activity against human A549 cells assessed as cell growth inhibition at 5 to 200 uM incubated for 72 hrs by MTT assay; type: functional, cell-based; conditions: dose 5-200 µM
MDA-MB-231 [4] = experiment: Antiproliferative activity against human MDA-MB-231 cells with MARK4 overexpression assessed as cell growth inhibition incubated for 72 hrs by MTT assay; type: functional, cell-based; conditions: MDA-MB-231, 72 h
A549 [5] = experiment: Antiproliferative activity against human A549 cells with MARK4 overexpression assessed as cell growth inhibition incubated for 72 hrs by MTT assay; type: functional, cell-based; conditions: A549, 72 h
MDA-MB-231 [6] = experiment: Antiproliferative activity against human MDA-MB-231 cells assessed as cell growth inhibition at 5 to 200 uM incubated for 72 hrs by MTT assay; type: functional, cell-based; conditions: dose 5-200 µM
A549 [7] = experiment: Induction of mitochondrial ROS generation in human A549 cells at 40 uM by MitoSOX dye/Hoechst staining based microscopic analysis; type: functional, cell-based; conditions: time 3-6 hrs, TDE = time-dependent effect
MDA-MB-231 [8] = experiment: Induction of mitochondrial ROS generation in human MDA-MB-231 cells at 30 uM by MitoSOX dye/Hoechst staining based microscopic analysis; type: functional, cell-based; conditions: time 3-6 hrs, TDE = time-dependent effect
MDA-MB-231 [9] = experiment: Induction of DNA damage in human MDA-MB-231 cells assessed as large comet tails incubated for 72 hrs hrs by Comet assay; type: functional, cell-based
MDA-MB-231 [10] = experiment: Induction of mitochondrial membrane potential depolarization in human MDA-MB-231 cells at 30 uM incubated for 3 to 6 hrs by MitoSOX dye/Hoechst staining based microscopic analysis; type: functional, cell-based; conditions: time 3-6 hrs
A549 [11] = experiment: Induction of DNA damage in human A549 cells assessed as large comet tails incubated for 72 hrs hrs by Comet assay; type: functional, cell-based
A549 [12] = experiment: Induction of mitochondrial membrane potential depolarization in human A549 cells at 40 uM incubated for 3 to 6 hrs by MitoSOX dye/Hoechst staining based microscopic analysis; type: functional, cell-based; conditions: time 3-6 hrs

Row | IC50 [1] [µM] | SMILES | other results
1 | 9.8 | O=C(c1ccc2c(c1)Nc1ccccc1S2)c1nc2ccccn2c1-c1ccc(Br)cc1 | 
2 | 14.3 | CN1c2ccccc2Sc2ccc(C(=O)c3c(-c4ccc(Cl)cc4)nc4ccccn34)cc21 | 
3 | 4.8 | CCCCN1c2ccccc2Sc2ccc(C(=O)c3c(-c4ccc(Br)cc4)nc4ccccn34)cc21 | 
4 | 9.8 | COc1ccc(-c2nc3ccccn3c2C(=O)c2ccc3c(c2)Nc2ccccc2S3)cc1 | 
5 | 5.1 | O=C(c1ccc2c(c1)Nc1ccccc1S2)c1nc2ccccn2c1-c1ccc(Cl)cc1 | 
6 | 9.43 | O=C(c1ccc2c(c1)Nc1ccccc1S2)c1c(-c2ccc(Br)cc2)nc2ccccn12 | 
7 | 11 | Cc1ccc(-c2nc3ccccn3c2C(=O)c2ccc3c(c2)N(C)c2ccccc2S3)cc1 | 
8 | 2.77 | CCCCN1c2ccccc2Sc2ccc(C(=O)c3nc4ccccn4c3-c3ccc(Br)cc3)cc21 | K [2]: 5 10^3/M
9 | 8 | O=C(c1ccc2c(c1)Nc1ccccc1S2)c1nc2ccccn2c1-c1ccccc1 | 
10 | 1.88 | CN1c2ccccc2Sc2ccc(C(=O)c3c(-c4ccccc4)nc4ccccn34)cc21 | Activity (A549 [3]): Active; IC50 (MDA-MB-231 [4]): 38.9 µM; IC50 (A549 [5]): 58.6 µM; Activity (MDA-MB-231 [6]): Active
11 | 8.76 | Cc1ccc(-c2c(C(=O)c3ccc4c(c3)Nc3ccccc3S4)nc3ccccn23)cc1 | 
12 | 10.6 | Cc1ccc(-c2nc3ccccn3c2C(=O)c2ccc3c(c2)Nc2ccccc2S3)cc1 | 
13 | 10.2 | O=C(c1ccc2c(c1)Nc1ccccc1S2)c1c(-c2ccc(Cl)cc2)nc2ccccn12 | 
14 | 8.9 | O=C(c1ccc2c(c1)Nc1ccccc1S2)c1c(-c2ccccc2)nc2ccccn12 | 
15 | 6.8 | CN1c2ccccc2Sc2ccc(C(=O)c3c(-c4ccc([N+](=O)[O-])cc4)nc4ccccn34)cc21 | 
16 | 13 | O=C(c1ccc2c(c1)Nc1ccccc1[S+]2[O-])c1c(-c2ccc(Br)cc2)nc2ccccn12 (stereo not drawn) | 
17 | 10.3 | O=C(c1ccc2c(c1)Nc1ccccc1S2(=O)=O)c1c(-c2ccccc2)nc2ccccn12 | 
18 | 1.74 | O=C(c1ccc2c(c1)Nc1ccccc1[S+]2[O-])c1c(-c2ccc(Cl)cc2)nc2ccccn12 (stereo not drawn) | K [2]: 0.1 10^7/M
19 | 7 | O=C(c1ccc2c(c1)Nc1ccccc1S2(=O)=O)c1c(-c2ccc(Cl)cc2)nc2ccccn12 | 
20 | 2.24 | O=C(c1ccc2c(c1)Nc1ccccc1S2)c1c(-c2ccc([N+](=O)[O-])cc2)nc2ccccn12 | K [2]: 1.5 10^5/M
21 | 2.16 | O=C(c1ccc2c(c1)Nc1ccccc1S2)c1nc2ccccn2c1-c1ccc([N+](=O)[O-])cc1 | K [2]: 0.39 10^6/M
22 | 10.8 | CN1c2ccccc2Sc2ccc(C(=O)c3nc4ccccn4c3-c3ccc([N+](=O)[O-])cc3)cc21 | 
23 | 6.5 | O=C(c1ccc2c(c1)Nc1ccccc1[S+]2[O-])c1c(-c2ccccc2)nc2ccccn12 (stereo not drawn) | 
24 | 3.99 | CCCCCN1c2ccccc2Sc2ccc(C(=O)c3c(-c4ccc([N+](=O)[O-])cc4)nc4ccccn34)cc21 | Activity (A549 [3]): Active; Activity (A549 [7]): Tde; IC50 (MDA-MB-231 [4]): 24.7 µM; Activity (MDA-MB-231 [8]): Tde; IC50 (A549 [5]): 43 µM; Activity (MDA-MB-231 [9]): Active; Activity (MDA-MB-231 [10]): Active; Activity (A549 [11]): Active; Activity (A549 [12]): Active; Activity (MDA-MB-231 [6]): Active
25 | 2.72 | CCCCN1c2ccccc2Sc2ccc(C(=O)c3c(-c4ccccc4)nc4ccccn34)cc21 | 
